Test results as given in patent US20120197004A1, “NOVEL ANTI-MICROBIAL PEPTIDOMIMETIC COMPOUNDS AND METHODS TO CALCULATE ANTI-MICROBIAL ACTIVITY” (priority 2006, published 2012).
Values after ≈ are worked out from the molar mass of the structure shown. Like-named read-outs stand apart in the source and are kept apart here. Where a SMILES comes first, the peptide text is derived from it. [ ]: non-standard residue; d: D form. ξ: configuration not given here. Oic = O=C(O)[C@@H]1C[C@@H]2CCCC[C@@H]2N1; Tic = O=C(O)[C@@H]1Cc2ccccc2CN1; 2Thi = N[C@@H](Cc1cccs1)C(=O)O; ξTic = O=C(O)C1Cc2ccccc2CN1; ξOic = O=C(O)C1CC2CCCCC2N1; βAla = NCCC(=O)O

What was measured:
[1] = in vitro; details: rat, microsomes, pH 7.4
[2] = in vitro; details: dog, microsomes, pH 7.4
[3] = system: Bacillus subtillis (ATCC 43223); details: ATCC 43223
[4] = in vitro; details: mouse, microsomes, pH 7.4
[5] = in vitro; details: human, microsomes, pH 7.4
[6] = system: red blood cells
[7] = system: Salmonella typhimurium (ATCC 13311); details: ATCC 13311
[8] = system: Staphylococcus aureus Methicillin/Gentamicin/Tetracycline Resistant (ATCC 33592); details: for MIC Staphylococcus aureus ME/GM/TC resistant: Minimal Inhibitory Concentration, tested at 100-0.1 in 1% DMSO; for Minimum Inhibitory Concentration Staphylococcus aureus ME/GM/TC resistant: in vitro MIC, tested at 100, 30, 10, 3, 1, 0.3 and 0.1 μM in 1% DMSO
[9] = system: Mycobacterium ranae (ATCC 110); details: ATCC 110
[10] = Metabolic stability, monkey liver microsomes; details: monkey, microsomes, pH 7.4
[11] = Metabolic stability, mouse liver microsomes; details: mouse, microsomes, pH 7.4
[12] = Metabolic stability, rat liver microsomes; details: rat, microsomes, pH 7.4
[13] = Metabolic stability, dog liver microsomes; details: dog, microsomes, pH 7.4
[14] = Metabolic stability, human liver microsomes
[15] = system: B. melitensis 16M; details: in vitro MIC
[16] = system: Plague CO92; details: in vitro MIC
[17] = system: Bacillus anthracis Ames; details: in vitro MIC
[18] = system: F. tularensis SCHU-S4; details: in vitro MIC
[19] = in vitro; details: monkey, microsomes, pH 7.4
[20] = system: mouse cutaneous injury; experiment: Mouse skin wound healing model; format: in vivo, CD-1 derived male mice; details: topical once daily for 10 days; test substances 100 μg/mouse, CGS-21680 10 μg/mouse
Description: In-vivo assays: Selected compounds were evaluated in an in-vivo mouse skin wound healing model by MDS Pharma Services using the following protocol. Groups of CD-1 derived male mice (n=5) weighting 24±2 g were used. Under hexobarbitol (90 mg/kg, IP) anesthesia, the shoulder and back region of each animal was shaved. A sharp punch (ID 12 mm) was applied to remove the skin including panniculus carnosus and adherent tissues. […] The percent closure of the wound (%) was calculated, and wound half-closure time (CT50) was analyzed by linear regression using Graph-Prism (Graph Software USA). One-way ANOVA followed by Dunnett's test was applied for comparison between the treated and its corresponding vehicle groups at each measurement time point. Differences are considered statistically significant at P<0.05.^41

CC(=O)NCC(=O)N[C@@H](Cc1ccccc1)C(=O)N[C@@H](Cc1ccccc1)C(=O)N1C(C(=O)NCC(=O)N[C@@H](CCCCN)C(=O)N[C@@H](Cc2ccccc2)C(=O)N2C(C(=O)NCC(=O)N[C@@H](Cc3ccccc3)C(=O)N[C@@H](Cc3ccccc3)C(=O)N3C(C(=O)NCC(=O)N[C@@H](CCCCN)C(=O)N[C@@H](Cc4ccccc4)C(=O)N[C@@H](CCCCN)C(=O)N[C@@H](CCCCN)C(=O)N[C@@H](CCCCN)C(=O)N[C@@H](CCCCN)C(N)=O)CC4CCCCC43)CC3CCCCC32)CC2CCCCC21 (stereo partly shown) [FKAB-1Gh, Ac-GF-F-Oic-GK-F-Oic-GF-F-Oic-GK-F-KKKK-CONH2] (Ac-GFF[ξOic]GKF[ξOic]GFF[ξOic]GKFKKKK-NH2)
remaining at 1 h, 1 μM [1]: 0% | remaining at 0.5 h, 1 μM [2]: 103% | remaining at 1 h, 1 μM [2]: 60% | MIC Bacillus Subtillis [3]: 1.00 µM (≈ 2.39 µg/mL) | remaining at 0.25 h, 1 μM [4]: 36% | remaining at 0.5 h, 1 μM [4]: 71% | remaining at 1 h, 1 μM [4]: 112% | remaining at 0.25 h, 1 μM [5]: 92% | % hemolysis 100/25 μM (first value) [6]: 27.30%/ | % hemolysis 100/25 μM (second value) [6]: 8.9% | MIC Salmonella typhimurium [7]: 10 µM (≈ 23.9 µg/mL) | MIC Staphylococcus aureus ME/GM/TC resistant [8]: 10.00 µM (≈ 23.9 µg/mL) | Minimum Inhibitory Concentration Staphylococcus aureus ME/GM/TC resistant [8]: 10 µM | MIC Mycobacterium ranae [9]: 10.00 µM (≈ 23.9 µg/mL) | Minimum Inhibitory Concentration Mycobacterium ranae [9]: 10 µM

C[C@]12CC[C@H]3[C@@H](CCC4=CC(=O)CC[C@@]43C)[C@@H]1CC[C@@H]2O [Testosterone, testosterone, reference compound]
remaining at 0.25 h, 1 μM [10]: 34% | remaining at 0.5 h, 1 μM [10]: 11% | remaining at 1 h, 1 μM [10]: 1% | remaining at 0.25 h, 1 μM [11]: 3% | remaining at 0.5 h, 1 μM [11]: 0% | remaining at 0.25 h, 1 μM [12]: 0% | remaining at 0.5 h, 1 μM [12]: 0% | remaining at 0.25 h, 1 μM [13]: 85% | remaining at 0.5 h, 1 μM [13]: 62% | remaining at 1 h, 1 μM [13]: 33% | remaining at 0.25 h, 1 μM ([14]; human, microsomes, pH 7.4): 77% | remaining at 0.5 h, 1 μM ([14]; human, microsomes, pH 7.4): 53% | remaining at 1 h, 1 μM ([14]; human, microsomes, pH 7.4): 29%

CC(=O)NCC(=O)N[C@@H](Cc1ccccc1)C(=O)N1Cc2ccccc2C[C@H]1C(=O)N1[C@H](C(=O)NCC(=O)N[C@@H](CCCCN)C(=O)N2Cc3ccccc3C[C@H]2C(=O)N2[C@H](C(=O)NCC(=O)N[C@@H](Cc3ccccc3)C(=O)N3Cc4ccccc4C[C@H]3C(=O)N3[C@H](C(=O)NCC(=O)N[C@@H](CCCCN)C(=O)N4Cc5ccccc5C[C@H]4C(=O)NCCC(=O)N[C@@H](CCCCN)C(=O)N[C@@H](CCCCN)C(=O)N[C@@H](CCCCN)C(=O)N[C@@H](CCCCN)C(N)=O)C[C@@H]4CCCC[C@@H]43)C[C@@H]3CCCC[C@@H]32)C[C@@H]2CCCC[C@@H]21 [FKAB-1G-βA, Ac-GF-Tic-Oic-GK-Tic-Oic-GF-Tic-Oic-GK-Tic-βAla-KKKK-CONH2] (Ac-GF[Tic][Oic]GK[Tic][Oic]GF[Tic][Oic]GK[Tic][βAla]KKKK-NH2)
remaining at 0.25 h, 1 μM [1]: 118% | remaining at 1 h, 1 μM [1]: 44% | remaining at 0.5 h, 1 μM [2]: 66% | remaining at 1 h, 1 μM [2]: 105% | remaining at 0.25 h, 1 μM [4]: 11% | Minimum Inhibitory Concentration B. melitensis 16M [15]: >500 µg/mL | Minimum Inhibitory Concentration Plague CO92 ([16]; listed as 52): 31.25 µg/mL | Minimum Inhibitory Concentration Bacillus anthracis Ames ([17]; listed as 52): 1.95 µg/mL | Minimum Inhibitory Concentration Staphylococcus aureus ME/GM/TC resistant [8]: 30 µM | Minimum Inhibitory Concentration F. tularensis SCHU-S4 [18]: 250 µg/mL | Minimum Inhibitory Concentration Mycobacterium ranae [9]: 10 µM

NCCCC[C@H](NC(=O)[C@H](CCCCN)NC(=O)[C@H](CCCCN)NC(=O)[C@H](CCCCN)NC(=O)C1Cc2ccccc2CN1C(=O)[C@H](CCCCN)NC(=O)CNC(=O)C1CC2CCCCC2N1C(=O)C1Cc2ccccc2CN1C(=O)[C@H](Cc1ccccc1)NC(=O)CNC(=O)C1CC2CCCCC2N1C(=O)C1Cc2ccccc2CN1C(=O)[C@H](CCCCN)NC(=O)CNC(=O)C1CC2CCCCC2N1C(=O)C1Cc2ccccc2CN1C(=O)[C@H](Cc1ccccc1)NC(=O)CNC(=O)[C@@H](N)Cc1cccs1)C(N)=O (stereo partly drawn) [FKAB-1G-Thi, Thi-GF-Tic-Oic-GK-Tic-Oic-GF-Tic-Oic-GK-Tic-KKKK-CONH2] (H-[2Thi]GF[ξTic][ξOic]GK[ξTic][ξOic]GF[ξTic][ξOic]GK[ξTic]KKKK-NH2)
remaining at 0.25 h, 1 μM [1]: 107% | remaining at 0.5 h, 1 μM [1]: 61% | remaining at 0.5 h, 1 μM [2]: 61% | remaining at 0.25 h, 1 μM [4]: 41% | remaining at 0.5 h, 1 μM [4]: 67% | Minimum Inhibitory Concentration B. melitensis 16M [15]: >500 µg/mL | Minimum Inhibitory Concentration Plague CO92 ([16]; listed as 56): 15.6 µg/mL | Minimum Inhibitory Concentration Bacillus anthracis Ames ([17]; listed as 56): 1.95 µg/mL | Minimum Inhibitory Concentration Staphylococcus aureus ME/GM/TC resistant [8]: 10 µM | Minimum Inhibitory Concentration F. tularensis SCHU-S4 [18]: 250 µg/mL | Minimum Inhibitory Concentration Mycobacterium ranae [9]: 30 µM

CC(=O)CC(c1ccccc1)c1c(O)c2ccccc2oc1=O (stereo not shown) [Warfarin, warfarin, reference compound]
remaining at 0.25 h, 1 μM [1]: 93% | remaining at 0.5 h, 1 μM [1]: 97% | remaining at 1 h, 1 μM [1]: 84% | remaining at 0.25 h, 1 μM [2]: 109% | remaining at 0.5 h, 1 μM [2]: 104% | remaining at 1 h, 1 μM [2]: 94% | remaining at 0.25 h, 1 μM [4]: 86% | remaining at 0.5 h, 1 μM [4]: 111% | remaining at 1 h, 1 μM [4]: 110% | remaining at 0.25 h, 1 μM [19]: 113% | remaining at 0.5 h, 1 μM [19]: 109% | remaining at 1 h, 1 μM [19]: 81% | remaining at 0.5 h, 1 μM [5]: 97% | remaining at 1 h, 1 μM [5]: 97% | % remaining at time T, Human Liver ([14]; first human column (T = 15 min, head not given), 1 μM, 0.5 mg/mL microsomes): 100%

CCNC(=O)[C@H]1O[C@@H](n2cnc3c(N)nc(NCCc4ccc(CCC(=O)O)cc4)nc32)[C@H](O)[C@@H]1O [CGS-21680, 2-p-[2-carboxyethyl]phenethyl-amino-5′-N-ethylcarboxamide-adenosine, reference compound]
CT50 (wound half-closure time) [20]: 5.4 days | wound closure Day 3 [20]: 41.1% | wound closure Day 5 [20]: 54.6% | wound closure Day 7 [20]: 70.6% | wound closure Day 9 [20]: 77.6% | wound closure Day 11 [20]: 84.3%

CC(=O)NCC(=O)N[C@@H](Cc1ccccc1)C(=O)N1Cc2ccccc2CC1C(=O)N1C(C(=O)NCC(=O)N[C@@H](CCCCN)C(=O)N2Cc3ccccc3CC2C(=O)N2C(C(=O)NCC(=O)N[C@@H](Cc3ccccc3)C(=O)N3Cc4ccccc4CC3C(=O)N3C(C(=O)NCC(=O)N[C@@H](CCCCN)C(=O)N4Cc5ccccc5CC4C(=O)N[C@@H](CCCCN)C(=O)N[C@@H](CCCCN)C(=O)N[C@@H](CCCCN)C(=O)N[C@@H](CCCCN)C(=O)N[C@@H](CCCCN)C(N)=O)CC4CCCCC43)CC3CCCCC32)CC2CCCCC21 (stereo partly drawn) [FKAB-1Gi, Ac-GF-Tic-Oic-GK-Tic-Oic-GF-Tic-Oic-GK-Tic-KKKKK-CONH2] (Ac-GF[ξTic][ξOic]GK[ξTic][ξOic]GF[ξTic][ξOic]GK[ξTic]KKKKK-NH2)
remaining at 0.25 h, 1 μM [1]: 76% | remaining at 0.5 h, 1 μM [1]: 86% | remaining at 1 h, 1 μM [1]: 87% | remaining at 0.5 h, 1 μM [2]: 63% | remaining at 1 h, 1 μM [2]: 79% | MIC Bacillus Subtillis [3]: 1.00 µM (≈ 2.57 µg/mL) | remaining at 0.25 h, 1 μM [4]: 77% | remaining at 0.5 h, 1 μM [4]: 26% | remaining at 1 h, 1 μM [4]: 15% | remaining at 0.25 h, 1 μM [19]: 72% | remaining at 0.5 h, 1 μM [19]: 75% | remaining at 1 h, 1 μM [19]: 99% | remaining at 0.25 h, 1 μM [5]: 86% | % hemolysis 100/25 μM (first value) [6]: 24.9%/ | % hemolysis 100/25 μM (second value) [6]: 18.9% | MIC Salmonella typhimurium [7]: 10 µM (≈ 25.7 µg/mL) | MIC Staphylococcus aureus ME/GM/TC resistant [8]: 3.00 µM (≈ 7.71 µg/mL) | Minimum Inhibitory Concentration Staphylococcus aureus ME/GM/TC resistant [8]: 3 µM | MIC Mycobacterium ranae [9]: 3.00 µM (≈ 7.71 µg/mL) | Minimum Inhibitory Concentration Mycobacterium ranae [9]: 3 µM
